Measured values as given in patent US10821142B2, “Cancer treatment and diagnosis” (priority 2015, dated 2020).

Columns and labels:
Type in all cases: cell-based, human
[1] = test system: STING-dependent dsDNA signaling; assay: STING signal activation by dsDNA90 in colon cancer cells after demethylation; settings: for phosphorylation of TBK1 and IRF3 after dsDNA: 5AZADC 5 days then dsDNA90 3 μg/ml
[2] = test system: STING and cGAS expression; assay: STING and cGAS expression in melanoma cells after 5AZADC (qPCR, immunoblot, RNA FISH); settings: 5 days
Experimental: (§1) FIGS. 30A-30G show DNA demethylation partially recapitulated STING and cGAS expression in human melanoma cell lines. FIG. 30A, qPCR analysis of cGAS expression in indicated human melanoma cells mock treated or treated with 1 μM […] (5AZADC) for 5 days. FIG. 30B, Immunoblot analysis of STING in indicated human melanoma cells treated same as above. FIG. 30C, RNA FISH analysis of STING and cGAS in cells (same as above) treated with 5AZADC same as above. Representative images are shown at 1260×. Bar size, 400 nm. qPCR analysis of IFNB (FIG. 30D) and CXCL10 (FIG. 30E) in cells (same as above) treated with 5AZADC followed by dsDNA transfection at 3 μg/ml dsDNA90 for 3 hours. Immunofluorescence Microscopy analysis of IRF3 translocation (FIG. 30F) and STING translocation (FIG. 30G) in indicated cells treated same as in FIG. 30D. Representative images are shown at 1260×. Bar size, 500 nm.
In view of this, it was examined whether STING or cGAS expression was suppressed by epigenetic processes, such as by hypermethylation of the promoter regions (20, 21). Indeed, databank analysis indicated the presence of considerable CpG islands within the STING and cGAS promoter region. As such, melanoma cells lacking either STING or cGAS expression were treated with the de-methylating agent 5-Aza-2′-deoxycytidine (5AZADC) for 5 days and evaluated recapitulation of STING or cGAS expression. […] Therefore DNA hypermethylation is involved in silencing STING or cGAS expression in some melanoma cells (A375 and MeWo). However it is not yet clear why expression levels of STING are muted in the remainder melanoma cells (G361, SK-MEL-5). Other epigenetic modifications such as histone modifications or other transcription regulator factors such as miRNA could be involved in suppressing STING and/or cGAS expression (Jin et al., 2013, Yarbrough et al., 2014). To determine if reconstitution of STING/cGAS expression rescued STING-dependent dsDNA signaling, IFNB and CXCL10 induction was examined in 5AZADC treated melanoma cells following dsDNA stimulation. […] Thus, demethylating agents may be able to partially rescue STING-dependent innate immune gene induction in select melanoma cells.
Equal amounts of proteins were resolved on sodium dodecyl sulfate (SDS)-Polyacrylamide gels and then transferred to polyvinylidene fluoride (PVDF) membranes (Millipore). After blocking with 5% Blocking Reagent, membranes were incubated with various primary antibodies (and appropriate secondary antibodies). The image was resolved using an enhanced chemiluminescence system ECL (Thermo Scientific) and detected by autoradiography (Kodak). Antibodies: rabbit polyclonal antibody against STING was developed in our laboratory as described previously in Ishikawa et al, 2008; other antibodies were obtained from following sources: β-actin (Sigma Aldrich), p-IRF3 (Cell Signaling), IRF3 (Santa Cruz Biotechnology), p-p65 (Cell Signaling), p65 (Cell Signaling), p-TBK1 (Cell Signaling), TBK1 (Abcam), cGAS (Cell Signaling).
Total RNA was reverse-transcribed using QuantiTect Reverse Transcription Kit (Qiagen). Real-time PCR was performed with the TaqMan gene Expression Assay (Applied Biosystems).
STING and cGAS RNA probed was custom designed by ACD and RNA in situ Hybridization was performed using RNAscope® Multiplex Fluorescent Reagent Kit for cultured cells and 2-plex RNAscope® Reagent Kit for FFPE cells and tissue following the manufacturer's instruction.

cGAS expression = cGAS expression (qPCR) in cGAS negative colon cancer cells after epigenetic drug treatment; settings: LS174T, SW480, SW1417, SW48, HT116; 5 days; rescued: SW480 and HT116
Experimental: FIGS. 5A-5F show STING activation and cytosolic DNA pathway in colon cancer cells were mostly defective: A series of colon cancer cells as well as normal cell controls were either mock transfected or transfected with dsDNA90 at 3 μg/ml for 3 hours, and were analyzed by Immunofluorescence Microscopy for STING translocation (FIG. 5A), IRF3 translocation (FIG. 5B), and p65 translocation (FIG. 5C). (FIG. 5D) Cells, same as above, were either mock transfected or transfected with dsDNA90 at 3 μg/ml for indicated time periods followed by immunoblot analysis for STING phosphorylation as well as phosphorylation of TBK1, IRF3 and p65. β-actin was used as loading control. (FIG. 5E) Cells, same as above, were analyzed by qPCR for cGAS expression. (FIG. 5F) Cells that have undetectable level of cGAS in E were treated with 1 μM 5-azacytidine for […], followed by qPCR analysis for cGAS expression. […] Error bars indicate s.d.
FIGS. 15A-15E show cGAS expression is suppressed in many human colon cancer cell lines and can be partially recapitulated through DNA demethylation. […]
To complement the above study, the expression of cGAS in the colon cancer cell-lines was examined. […] Given these findings, examination of the expression of cGAS in 47 human colon cancers at various stages of tumorigenesis was analyzed (FIG. 13C). Expression of cGAS was low to undetectable in approximately 30% of cells analyzed. […]

[3] = test system: STING-dependent dsDNA signaling; assay: IFNB and CXCL10 induction by dsDNA in 5AZADC treated melanoma cells
Experimental: as §1
In view of this, it was examined whether STING or cGAS expression was suppressed by epigenetic processes, such as by hypermethylation of the promoter regions (20, 21). Indeed, databank analysis indicated the presence of considerable CpG islands within the STING and cGAS promoter region. As such, melanoma cells lacking either STING or cGAS expression were treated with the de-methylating agent 5-Aza-2′-deoxycytidine (5AZADC) for 5 days and evaluated recapitulation of STING or cGAS expression. […] Therefore DNA hypermethylation is involved in silencing STING or cGAS expression in some melanoma cells (A375 and MeWo). However it is not yet clear why expression levels of STING are muted in the remainder melanoma cells (G361, SK-MEL-5). Other epigenetic modifications such as histone modifications or other transcription regulator factors such as miRNA could be involved in suppressing STING and/or cGAS expression (Jin et al., 2013, Yarbrough et al., 2014). […]
Total RNA was reverse-transcribed using QuantiTect Reverse Transcription Kit (Qiagen). […]

Nc1ncn([C@H]2C[C@H](O)[C@@H](CO)O2)c(=O)n1 [5AZADC, 5-Aza-2′-deoxycytidine]
expression of type I IFN and IL-1β after dsDNA ([1]; 5AZADC treated SW480 and HT116, dsDNA90 3 μg/ml for 3 hours): modest expression of type I IFN and IL-1β | phosphorylation of TBK1 and IRF3 after dsDNA ([1]; LS174T (cGAS not rescued)): not LS174T cells regained phosphorylation of TBK1 and IRF3 | phosphorylation of TBK1 and IRF3 after dsDNA ([1]; SW480, HT116 (cGAS rescued)): regained phosphorylation of TBK1 and IRF3 | cGAS expression ([2]; A375 cells): cGAS expression was recovered | STING expression ([2]; G361 and SK-MEL-5 cells): STING remained absent | STING expression ([2]; MeWo cells, immunoblot and RNA FISH): STING expression was restored | cGAS expression ([2]; SK-MEL-5 cells): partially restored | cGAS expression ([2]; SK-MEL-24 cells): did not seem to affect cGAS expression level | cells in which cGAS expression was rescued (cGAS expression): 2 of the 5 | STING function following dsDNA stimulation ([3]; G361 or SK-MEL-5 cells): no STING function was observed | IFNB induction following dsDNA stimulation ([3]; STING rescued MeWo cells): modest expression of IFNB | IFNB and CXCL10 induction following dsDNA stimulation ([3]; cGAS rescued A375 cells): Induction of both IFNB and CXCL10 production was observed
